42 molecules from patent US11242361B2 (Proteostasis Therapeutics, Inc., priority 2013, dated 2022) can be followed below.

The experiment concerns the target USP14 (Homo sapiens (Human), UniProt P54578). As to the kind of experiment: USP14 Inhibition Assay. It counts as biochemical. The settings on record: average value from a minimum of two experimental determinations, read-out: IC50 Category. On the procedure:
Example 17: USP14 Inhibition Assay
“I” in the Table below designates an IC50 of >5 μM, “II” in the Table below designates and IC50 between 0.5 and 5 μM, and “III” designates an IC50<0.5 μM. The IC50 values in the Table below represent the average value from a minimum of two experimental determinations.

USP14, sequence (P54578 whole entry, looked up): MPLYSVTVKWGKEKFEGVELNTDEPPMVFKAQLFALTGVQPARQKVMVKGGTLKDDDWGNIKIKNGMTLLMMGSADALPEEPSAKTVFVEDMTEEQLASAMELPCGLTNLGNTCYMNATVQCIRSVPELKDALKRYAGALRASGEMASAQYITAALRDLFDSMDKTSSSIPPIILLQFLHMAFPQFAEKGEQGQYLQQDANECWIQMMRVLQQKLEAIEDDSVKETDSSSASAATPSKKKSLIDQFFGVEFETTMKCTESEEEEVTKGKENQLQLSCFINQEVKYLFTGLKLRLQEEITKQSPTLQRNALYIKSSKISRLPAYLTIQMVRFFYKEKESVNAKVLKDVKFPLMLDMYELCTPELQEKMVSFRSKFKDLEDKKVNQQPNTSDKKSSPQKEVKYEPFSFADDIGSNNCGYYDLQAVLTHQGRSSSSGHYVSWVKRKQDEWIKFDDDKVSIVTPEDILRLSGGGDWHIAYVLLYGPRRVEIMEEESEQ

Take `CCNC(=O)Cc1cnc2c(C(=O)CN3CCCCC3)c(C)n(-c3ccc(C#N)cc3)c2c1` [Compound 383, 2-(1-(4-Cyanophenyl)-2-methyl-3-(2-(piperidin-1-yl)acetyl)-1H-pyrrolo[3,2-b]pyridin-6-yl)-N-ethylacetamide]: the IC50 was under 500 nM.

On to `Cc1c(C(=O)CN2CCC(N)CC2)c2ncc(Br)cc2n1-c1ccc(C#N)cc1` [Compound 367], for which the half-inhibitory concentration (IC50) fell in the range of 500 to 5000 nM.

In the case of `Cc1c(C(=O)CN2CCC(NC(=O)OC(C)(C)C)CC2)c2ccccc2n1-c1ccc(Cl)cc1` [Compound 142], the IC50 lay within 500 to 5000 nM.

On to `COCCOc1cnc2c(C(=O)CN3CCC(O)CC3)c(C)n(-c3ccc(C#N)cc3)c2c1` [Compound 341], for which the IC50 is under 500 nM.

As to `CCOC(=O)CC1CCN(CC(=O)c2c(C)n(-c3ccc(C#N)cc3)c3cc(Br)cnc23)CC1` [Compound 365], the IC50 was 500 to 5000 nM.

Regarding `O=C(CN1CCCCC1)c1cn(-c2ccc(Cl)cc2)c2ccccc12` [Compound 31], the IC50 is over 5000 nM.

On to `COc1cnc2c(C(=O)CN3CCC(CN(C)C)CC3)c(C)n(-c3ccc(C#N)cc3)c2c1` [Compound 370], for which the concentration for half-maximal inhibition (IC50) is under 500 nM.

As for `Cc1c(C(=O)CN2CCCCC2)c2ccc(CN)cc2n1-c1ccc(Cl)cc1` [Compound 185, 1-(6-(Aminomethyl)-1-(4-chlorophenyl)-2-methyl-1H-indol-3-yl)-2-(piperidin-1-yl)ethan-1-one], the IC50 is under 500 nM.

As to `Cc1c(C(O)CN2CCCCC2)c2ccccc2n1-c1ccc(Cl)cc1` (stereo not drawn) [Compound 106, 1-(1-(4-Chlorophenyl)-2-methyl-1H-indol-3-yl)-2-(piperidin-1-yl)ethan-1-ol], the half-maximal inhibitory concentration (IC50) was over 5000 nM.

Regarding `Cc1c(C(=O)CN2CCC[C@@H]2C)c2ncc(Br)cc2n1-c1ccc(C#N)cc1` [Compound 307], the IC50 was under 500 nM.

Consider `CC(=O)NCc1ccc2c(c1)c(C(=O)CN1CCCCC1)c(C)n2-c1ccc(C#N)cc1` [Compound 183, N-((1-(4-Cyanophenyl)-2-methyl-3-(2-(piperidin-1-yl)acetyl)-1H-indol-5-yl)methyl)acetamide], for which the IC50 was under 500 nM.

On to `O=C(CN1CCCCC1)c1c(C2CC2)n(-c2ccc(Cl)cc2)c2ccccc12` [Compound 399], for which the 50% inhibitory concentration (IC50) is over 5000 nM.

Consider `Cc1c(C(=O)CN2CCC(O)CC2)c2ncc(C(F)(F)F)cc2n1-c1ccc(C#N)cc1` [Compound 302], for which the IC50 was under 500 nM.

With `Cc1c(C(=O)CN2CCCCC2)c2nc(O)ccc2n1-c1ccc(C#N)cc1` [Compound 127, 4-(5-Hydroxy-2-methyl-3-(2-(piperidin-1-yl)acetyl)-1H-pyrrolo[3,2-b]pyridin-1-yl)benzonitrile], the half-inhibitory concentration (IC50) is over 5000 nM.

Turning to `COc1ccc2c(C(=O)CN3CCCCC3)c(C)n(-c3ccc(Cl)cc3)c2c1` [Compound 178], the half-inhibitory concentration (IC50) is under 500 nM.

As for `CCCC(=O)CCc1cnc2c(C(=O)CN3CCCCC3)c(C)n(-c3ccc(Cl)cc3)c2c1` [Compound 387], the IC50 is under 500 nM.

`Cc1c(C(=O)CN2CCCCC2)c2cc(C#N)ccc2n1-c1ccc(C#N)cc1` [Compound 163]: the IC50 was under 500 nM.

As for `CC(=O)OCc1ccc2c(C(=O)CN3CCCCC3)cn(-c3ccc(Cl)cc3)c2c1` [Compound 118, (1-(4-Chlorophenyl)-3-(2-(piperidin-1-yl)acetyl)-1H-indol-6-yl)methyl Acetate], the IC50 was over 5000 nM.

Consider `Cc1cnc2c(C(=O)CN3CCC(F)CC3)c(C)n(-c3ccc(C#N)cc3)c2c1` [Compound 190], for which the IC50 was under 500 nM.

With `Cc1c(C(=O)CN2CCCCC2)c2ccc(CCC(N)=O)cc2n1-c1ccc(C#N)cc1` [Compound 194, 3-(1-(4-Cyanophenyl)-2-methyl-3-(2-(piperidin-1-yl)acetyl)-1H-indol-6-yl)propanamide], the concentration for half-maximal inhibition (IC50) is under 500 nM.

As to `Cc1c(C(=O)CN2CCC(F)(F)C2)c2ncc(Br)cc2n1-c1ccc(C#N)cc1` [Compound 324], the IC50 was over 5000 nM.

Turning to `Cc1c(C(=O)CN2CCCCC2)c2ccc(C#N)cc2n1-c1ccc(C#N)cc1` [Compound 175], the IC50 is under 500 nM.

With `C#CCCCNC(=O)CCc1cnc2c(C(=O)CN3CCC(O)CC3)c(C)n(-c3ccc(C#N)cc3)c2c1` [Compound 361], the IC50 was under 500 nM.

`Cc1c(C(=O)CN2CCC(O)CC2)c2ccccc2n1-c1ncc(Cl)s1` [Compound 402]: the half-maximal inhibitory concentration (IC50) was over 5000 nM.

For `Cc1c(C(=O)CN2CCC(O)CC2)c2ncccc2n1-c1ccc(Cl)cc1` [Compound 388], the IC50 is under 500 nM.

With `Cc1c(C(=O)CN2CCC(O)CC2)c2ncc(CCS(N)(=O)=O)cc2n1-c1ccc(Cl)cc1` [Compound 357, 2-(1-(4-Chlorophenyl)-3-(2-(4-hydroxypiperidin-1-yl)acetyl)-2-methyl-1H-pyrrolo[3,2-b]pyridin-6-yl)ethane-1-sulfonamide], the 50% inhibitory concentration (IC50) is under 500 nM.

On to `Cc1c(C(=O)CN2CCC(O)CC2)c2ccccc2n1-c1ccc(F)cc1` [Compound 389], for which the IC50 was under 500 nM.

Turning to `Cc1c(C(=O)CN2CCCCC2)c2ncc(CN3CCCC3)cc2n1-c1ccc(C#N)cc1` [Compound 360, 4-(2-Methyl-3-(2-(piperidin-1-yl)acetyl)-6-(pyrrolidin-1-ylmethyl)-1H-pyrrolo[3,2-b]pyridin-1-yl)benzonitrile], the IC50 is under 500 nM.

Consider `Cc1c(C(=O)CN2CC=CCC2)c2ncc(Br)cc2n1-c1ccc(C#N)cc1` [Compound 314], for which the half-maximal inhibitory concentration (IC50) fell in the range of 500 to 5000 nM.

For the molecule `Cc1c(C(=O)CN2CCCCC2)c2nc(F)ccc2n1-c1ccc(Cl)cc1` [Compound 173], the concentration for half-maximal inhibition (IC50) is under 500 nM.

With `Cc1c(C(=O)CN2CCCC[C@H]2C)c2ncc(Br)cc2n1-c1ccc(C#N)cc1` [Compound 309], the IC50 is under 500 nM.

Turning to `Cc1c(C(=O)CN2C[C@H](C)C[C@@H](C)C2)c2ncc(Br)cc2n1-c1ccc(C#N)cc1` [Compound 348], the IC50 was over 5000 nM.

For the molecule `Cc1c(C(=O)CN2CCCC2)c2ccccc2n1-c1ccc(Cl)cc1` [Compound 88], the IC50 is under 500 nM.

Consider `CCOC(=O)CCc1ccc2c(C(=O)CN3CCCCC3)c(C)n(-c3ccc(C#N)cc3)c2c1` [Compound 133, Ethyl 3-(1-(4-Cyanophenyl)-2-methyl-3-(2-(piperidin-1-yl)acetyl)-1H-indol-6-yl)propanoate], for which the concentration for half-maximal inhibition (IC50) is under 500 nM.

As for `Cc1c(C(=O)CN2CCC(O)CC2)c2ncc(Br)cc2n1-c1ccc(C#N)cc1` [Compound 353], the half-inhibitory concentration (IC50) was under 500 nM.

`Cc1c(C(=O)CN2CCCCC2)c2ncc(CCC(=O)NCCCN=[N+]=[N-])cc2n1-c1ccc(C#N)cc1` [Compound 299]: the IC50 is under 500 nM.

For the molecule `Cc1c(C(=O)CN2CC=CC2)c2ncc(Br)cc2n1-c1ccc(C#N)cc1` [Compound 315], the concentration for half-maximal inhibition (IC50) is under 500 nM.

Regarding `O=C(CN1CCCC1)c1cn(-c2ccc(Cl)cc2)c2ccccc12` [Compound 34], the concentration for half-maximal inhibition (IC50) is over 5000 nM.

Consider `Cc1c(C(=O)CN2CCCCC2)c2ccccc2n1-c1ccc([N+](=O)[O-])cc1` [Compound 164], for which the IC50 is under 500 nM.

Take `Cc1c(C(=O)CN2CCCCC2)c2nc(-n3ccnn3)ccc2n1-c1ccc(C#N)cc1` [Compound 209, 4-(2-Methyl-3-(2-(piperidin-1-yl)acetyl)-5-(1H-1,2,3-triazol-1-yl)-1H-pyrrolo[3,2-b]pyridin-1-yl)benzonitrile]: the 50% inhibitory concentration (IC50) was under 500 nM.

As to `Cc1c(C(=O)CN2CCC(O)CC2)c2ccccc2n1-c1ccc(Cl)cc1` [Compound 86], the IC50 is under 500 nM.

Regarding `Cc1c(C(=O)CN2CCC(CN)CC2)c2ncc(Br)cc2n1-c1ccc(C#N)cc1` [Compound 354], the IC50 was under 500 nM.

As a reminder, the IC50 is the concentration that inhibits the measured activity by half.
